# Like-named read-outs stand apart in the source and are kept apart here.
# How the values were obtained:
# heme oxygenase = molecular target: T1, heme oxygenase (Rattus norvegicus, UniProt P06762); test: rat spleen heme oxygenase incubation, in vitro inhibition; type: biochemical; details: for Km: normal Km 3.64 μM, read-out: Km for degradation of heme by heme oxygenase to bile pigment
# T1 construct: rat spleen - heme oxygenase incubation mixtures; from tissue; host or cells: rat spleen
# T1 sequence (P06762 1-289): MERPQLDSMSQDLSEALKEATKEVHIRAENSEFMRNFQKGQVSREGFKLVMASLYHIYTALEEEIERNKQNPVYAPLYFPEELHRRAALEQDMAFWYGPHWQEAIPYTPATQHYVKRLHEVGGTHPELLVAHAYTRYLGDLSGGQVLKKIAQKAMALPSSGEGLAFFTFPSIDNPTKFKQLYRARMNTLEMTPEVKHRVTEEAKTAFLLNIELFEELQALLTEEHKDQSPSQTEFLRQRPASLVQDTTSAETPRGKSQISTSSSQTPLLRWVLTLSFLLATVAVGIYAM
# serum bilirubin [1] = test: experimental postnatal hyperbilirubinemia produced by ALA in 7 day old rats, serum bilirubin; type: in vivo, rat; details: single dose 1 μmol/kg body weight at 0 time, 24 hours
# Experimental: (§1) The efficacy of SnMP for controlling hyperbilirubinemia was also examined in a model of experimental postantal hyperbilirubinemia in the rat utilizing the heme precursor […] (ALA) to produce jaundice 7 days after birth (Drummond & Kappas, J. Clin. Invest., 74, 142-149, 1984). AlA (50 μmol/100g body weight) administered to suckling 7 day old neonates at 0,4 and 8 hours produced an approximately 3 fold increase in serum bilirubin levels 24 hours after the initial injection (FIG. 3). […] Heme oxygenase was assayed as earlier described (J. Biol. Chem., 253, 2321-2326, 1978).
# hepatic heme oxygenase = hepatic heme oxygenase activity in ALA-treated 7 day old rats; type: in vivo, rat; details: single dose 1 μmol/kg body weight
# Experimental: as §1
# [2] = system: liver tryptophan pyrrolase; test: liver tryptophan pyrrolase activity and heme saturation after parenteral administration to rats; type: in vivo, rat; details: 1 μmol/kg s.c.
# Experimental: With adults afflicted with sickle cell anemia or another condition resulting in increased bilirubin concentration, the dosage unit is normally smaller since in all but the most acute situations, the bilirubin concentration is not as high as in neonates. The standard dosage with adults will normally be from about 2 to 5 mg/kg of body weight. […] In this study SnMP was administered subcutaneously at a dosage level of 1 μmol/kg of body weight to male Sprague-Dawley rats (180-200g). Control animals received an equivalent volume of aqueous isotonic saline. Tissue preparation of liver fractions for enzymic assays were conducted as described by Drummond and Kappas. Proc. Natl. Acad. Sci. USA. 78:6466-6470 (1981). Tryptophan pyrrolase activity was determined both in the absence (holoenzyme) and the presence (total enzyme) of added heme ([…]). The latter enzyme activity was calculated from the linear phase of kynurenine formation. The percent heme saturation for tryptophan pyrrolase was expressed as the ratio of holoenzyme to total enzyme (×100 ). Each data point in the figure represents the mean value of determinations in 3 to 6 animals.
# [3] = biliary output of bilirubin, heme and iron in rats; type: in vivo, rat
# Experimental: It has been observed that when heme is administered alone to animals such as rats, a large output of biliary bilirubin (mono- and diglucuronide forms) occurs, with a slight output of excess heme.
# It is therefore clear that the administration of SnMP to mammals increases the biliary excretion of excess heme and thus of its contained iron atom as well. They make it clear also that the excess heme which accumulates when the rate of bilirubin production is decreased by the administration of SnMP is excreted in the bile and not stored in tissues. More particularly, they make it clear that the administration of SnMP to mammals suffering acute or chronic excess of heme or iron will increase the rate at which such heme or iron will be excreted into the intestinal contents.
# serum bilirubin [4] = test: serum bilirubin in newborn rats after a single subcutaneous injection at birth
substance,measurement,setting,value
tin mesoporphyrin [SnMP],inhibition of heme oxygenase activity,heme oxygenase; 0.025 and 0.05 μM SnMP,marked competitive inhibition
same,Km,heme oxygenase; SnMP 0.025 μM,11.1 µM
same,Km,heme oxygenase; SnMP 0.05 μM,18.2 µM
same,in vitro ability to inhibit the production of bilirubin relative to SnPP,heme oxygenase; compared with SnPP,just about as effective in this regard as SnPP
same,Ki,"heme oxygenase; rat spleen heme oxygenase, read-out: inhibition constant Ki for the inhibition of the conversion of heme to bilirubin by heme oxygenase",0.013 µM
same,effect on the increase in serum bilirubin produced by ALA,serum bilirubin [1],substantially diminished
same,effect on the increase in hepatic heme oxygenase activity associated with ALA administration,hepatic heme oxygenase,prevented the increase
same,percent heme saturation of tryptophan pyrrolase,"[2]; male Sprague-Dawley rats, in two hours",approximately 80%
same,duration of the initial high tryptophan pyrrolase activity relative to SnPP,"[2]; rats, compared with SnPP",maintained for a more extended period of time
same,output of biliary iron,[3]; bile duct cannulated rats,increase in output of biliary iron
same,biliary bilirubin output,"[3]; rats, SnMP administered with heme",the bilirubin peak will decline
same,effect on the increase in serum bilirubin 24 hours after birth,serum bilirubin [4]; 1 μmol/kg body weight s.c. once at birth,entirely prevented
same,effectiveness in vivo in lowering plasma bilirubin / suppressing neonatal jaundice relative to SnPP,serum bilirubin [4]; compared with SnPP,5-10 times

# Source: patent US4657902A, “Therapeutic use of tin mesoporphyrin” (The Rockefeller University, priority 1985, dated 1987)
